Consider 1 molecule from patent US20210106579A1, “AMELIORATION OF COGNITIVE AND MOTOR DEFICITS ASSOCIATED WITH ALZHEIMER'S” (Neuralstem, Inc., priority 2018, published 2021).

Each structure is given as a SMILES string.

For assay [1], the system named is 5XFAD mice. Nature of the assay: Object recognition test (short term memory) in Alzheimer's mouse model. Conditions: 30 mg/kg/day oral, 6 weeks of treatment, FIG. 5. Format: in vivo. As for the experimental part:
(§1) A mouse model of Alzheimer's disease obtained from Jackson Laboratory was used in this study. […] Wild type control B6SJLF1/J mice were used. 5XFAD mice developed cognitive impairments at 4-5 months of age. Four groups of mice were employed, 15 mice per group, a wild type control administered vehicle; a wild type control administered NSI-189 as the phosphate salt administered orally at a level of 30 mg/kg per day and 5XFAD mice administered vehicle or administered NSI-189 as the phosphate salt orally also at 30 mg/kg/day (of the organic moiety). NSI-189 is of Formula 2 wherein R^1 is isoamyl. The treatment began at 15 weeks and was maintained for 12 weeks with measurements made after 6 weeks and 12 weeks.
The object recognition test is also described in King, M. R., et al. (supra). This is based on a concept that the mice will explore a novel object for a longer time than a familiar object. Two identical objects are placed equal distance from each other and from the side of a transparent box and mice are given 10 minutes to achieve 30 seconds of exploration of the two objects after which they are placed back in their home cage. […] The time that the mouse spends exploring the familiar and novel object is recorded and mice with normal cognitive function typically spend more time with a novel object.

Assay [2] has as its system 5XFAD mice. The assay is described as follows: Anxiety: time spent on the edge of an inverted beaker. The format is in vivo, mouse. To be noted: FIG. 8. As for the experimental part: as §1
The time spent on the edge of an inverted beaker is used to assess anxiety, and the lower the time the more the anxious the mouse.

The subject of assay [3] is 5XFAD mice. Nature of the assay: Learning Rota-Rod test (motor skills and learning) in Alzheimer's mouse model. Conditions: 30 mg/kg/day oral. The format is in vivo. As for the experimental part: as §1
The Rota-Rod test also is described in King, et al. (supra). Rota-Rod is marketed by Stoelting Company, Wood Dale, Ill. This is a rod that rotates accelerating from 4-40 rpm over five minutes and the amount of time spent on the rod before loss of balance is recorded over three trials. This measures both motor skills, and if conducted over a period of days, it measures learning.
Background: Falling from the rotarod earlier than controls is read as motor impairment.

For assay [4], the system named is 5XFAD mice. The assay is described as follows: Barnes maze test (learning and memory retention) in Alzheimer's mouse model. The format is in vivo. Conditions: 30 mg/kg/day oral; for Memory retention (Barnes maze, retest after two days): 5XFAD mice. How it is done: as §1
The Barnes maze test is described in King, M. R., et al., J. Neurosc. Res. (supra). The Barnes maze consists of a brightly lit, circular, white platform with 20 holes with equidistant spacing around the periphery. An escape box is placed beneath one of the holes marked by a visual clue. Before testing begins, the mouse is placed in the center of the platform and allowed to explore until either it finds the escape box or five minutes has elapsed. The time to locate the escape box is then recorded at the end of the session, the mouse is left in, or placed in, the escape box for an additional minute.
This system is used to test both learning and memory. To test learning, the mouse was placed in the maze for five consecutive days to ascertain whether the time required to find the escape box was decreased, which would indicate learning. To test memory retention, a subsequent period of two days was allowed to elapse and the mouse was retested to ascertain whether a decreased time in finding the escape box was found.

With `CC(C)CCNc1ncccc1C(=O)N1CCN(Cc2ccccc2)CC1` [NSI-189], the “Recognition index (object recognition test)” value in the assay on 5XFAD mice [1] is reported as “improved the recognition index of 5XFAD mice”. Further, the “Anxiety (time spent on the edge of an inverted beaker)” value with 5XFAD mice [2] (control and 5XFAD mice at 7 months (12 weeks of treatment)) was “partially reduced the anxiety in both”; in the assay on 5XFAD mice [2] (control and 5XFAD mice at five months (6 weeks of treatment)) it was “did not affect either group”. Also, in the assay on 5XFAD mice [3] (5XFAD mice, 6 weeks of treatment, FIG. 7), the “Motor skill at the beginning and learning (time on Rota-Rod)” value was “improves both the motor skill exhibited at the beginning and learning even over control”. Moreover, the “Behavior of control mice” value in the assay with 5XFAD mice [3] (wild type control mice, statement covers the behavioural tests) was “In no case did NSI-189 affect the behavior of control mice”. For the same molecule, the “Learning (Barnes maze)” value in the assay with 5XFAD mice [4] (5XFAD mice (7 month old), 12 weeks of treatment, FIG. 3) is “amelioration of worsened learning deficit”. Also, the “Memory retention (Barnes maze, retest after two days)” value was “improved memory” in the assay on 5XFAD mice [4] (6 weeks of treatment, FIG. 2) and “improvement of memory retention” with 5XFAD mice [4] (12 weeks of treatment, FIG. 4). Also, in the assay on 5XFAD mice [4] (control and 5XFAD mice, 6 weeks of treatment, FIG. 1), the “Learning (Barnes maze, time to find escape box over five consecutive days)” value is “appeared not to affect the learning curve of either group”.
